Measured values published in PubChem BioAssay AID1963973 (Molecular Pharmacology Branch, DTP, NCI, 2024).

Test system: 883617-216-R-J1-PDC tumor spheroids, viability
Experiment: Anticancer human tumor 883617-216-R-J1-PDC patient-derived bladder carcinoma cell line growth inhibition [PI3K]
Settings: spheroids with HUVEC and MSC; for viability, T/C: stronger effect = lower value
Summary of the method: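 High-throughput combination screen: PI3K inhibitors crossed with targeted small molecules on complex spheroids of tumor cells, HUVEC and MSCs at 37 degrees C, 5% CO2. Top concentration was at or near clinical Cmax (otherwise 10 microM), with half-log decrements.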

[1] = curve of first compound, second compound 0.00316 µM
[2] = curve of first compound, second compound 0.01 µM
[3] = curve of first compound, second compound 0.0316 µM
[4] = curve of first compound, second compound 0.1 µM
[5] = curve of first compound, second compound 0.316 µM
[6] = curve of first compound, second compound 1 µM
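Further: spheroids exposed to agents for 7 days before the viability read.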

Cn1cnc2c(F)c(Nc3ccc(Br)cc3Cl)c(C(=O)NOCCO)cc21 + COc1c(OCCCN2CCOCC2)ccc2c3n(c(=NC(=O)c4cnc(N)nc4)nc12)CCN3
IC50 [1]: 23.6 nM | IC50 [2]: < 9.49 nM | IC50 [3]: < 9.49 nM | IC50 [4]: < 9.49 nM | IC50 [5]: < 9.49 nM | IC50 [6]: < 9.49 nM | viability, T/C (second compound 0.00316 µM, first compound 0.00949 µM): 59.8% | viability, T/C (second compound 0.00316 µM, first compound 0.03 µM): 43.9% | viability, T/C (second compound 0.00316 µM, first compound 0.0949 µM): 37.1% | viability, T/C (second compound 0.00316 µM, first compound 0.3 µM): 39.7% | viability, T/C (second compound 0.00316 µM, first compound 0.949 µM): 22.8% | viability, T/C (second compound 0.00316 µM, first compound 3 µM): 18.9% | viability, T/C (second compound 0.01 µM, first compound 0.00949 µM): 44.2% | viability, T/C (second compound 0.01 µM, first compound 0.03 µM): 42.5% | viability, T/C (second compound 0.01 µM, first compound 0.0949 µM): 27% | viability, T/C (second compound 0.01 µM, first compound 0.3 µM): 21.2% | viability, T/C (second compound 0.01 µM, first compound 0.949 µM): 22.8% | viability, T/C (second compound 0.01 µM, first compound 3 µM): 15.2% | viability, T/C (second compound 0.0316 µM, first compound 0.00949 µM): 23.1% | viability, T/C (second compound 0.0316 µM, first compound 0.03 µM): 20.8% | viability, T/C (second compound 0.0316 µM, first compound 0.0949 µM): 16.4% | viability, T/C (second compound 0.0316 µM, first compound 0.3 µM): 14.1% | viability, T/C (second compound 0.0316 µM, first compound 0.949 µM): 11.8% | viability, T/C (second compound 0.0316 µM, first compound 3 µM): 7.94% | viability, T/C (second compound 0.1 µM, first compound 0.00949 µM): 9.95% | viability, T/C (second compound 0.1 µM, first compound 0.03 µM): 7.44% | viability, T/C (second compound 0.1 µM, first compound 0.0949 µM): 5.9% | viability, T/C (second compound 0.1 µM, first compound 0.3 µM): 4.34% | viability, T/C (second compound 0.1 µM, first compound 0.949 µM): 3.93% | viability, T/C (second compound 0.1 µM, first compound 3 µM): 2.03% | viability, T/C (second compound 0.316 µM, first compound 0.00949 µM): 3.44% | viability, T/C (second compound 0.316 µM, first compound 0.03 µM): 2.07% | viability, T/C (second compound 0.316 µM, first compound 0.0949 µM): 1.3% | viability, T/C (second compound 0.316 µM, first compound 0.3 µM): 1.34% | viability, T/C (second compound 0.316 µM, first compound 0.949 µM): 0.72% | viability, T/C (second compound 0.316 µM, first compound 3 µM): 0.47% | viability, T/C (second compound 1 µM, first compound 0.00949 µM): 1.2% | viability, T/C (second compound 1 µM, first compound 0.03 µM): 0.53% | viability, T/C (second compound 1 µM, first compound 0.0949 µM): 0.38% | viability, T/C (second compound 1 µM, first compound 0.3 µM): 0.39% | viability, T/C (second compound 1 µM, first compound 0.949 µM): 0.18% | viability, T/C (second compound 1 µM, first compound 3 µM): 0.21%

Cn1ncc(Cl)c1-c1cc(C(=O)NC(CN)Cc2cccc(F)c2)sc1Cl (configuration not stated)
viability, T/C (compound 0.0316 µM): 98.2% [middle of 4 runs] | viability, T/C (compound 0.1 µM): 85% [middle of 4 runs] | viability, T/C (compound 0.316 µM): 63.8% [middle of 4 runs] | viability, T/C (compound 1 µM): 34.5% [middle of 4 runs] | viability, T/C (compound 3.16 µM): 13.8% [middle of 4 runs] | IC50 (curve of compound): 571 nM [middle of 4 runs]

CNC(=O)c1ccc(N2C(=S)N(c3ccc(C#N)c(C(F)(F)F)c3)C(=O)C2(C)C)cc1F + CC(Nc1ccc2c(c1)OCCn1cc(N3C(=O)OCC3C(F)F)nc1-2)C(N)=O
IC50 [1]: > 10000 nM | IC50 [2]: > 10000 nM | IC50 [3]: > 10000 nM | IC50 [4]: < 31.6 nM | IC50 [5]: < 31.6 nM | IC50 [6]: < 31.6 nM | viability, T/C (second compound 0.00316 µM, first compound 0.0316 µM): 94.3% | viability, T/C (second compound 0.00316 µM, first compound 0.1 µM): 78.7% | viability, T/C (second compound 0.00316 µM, first compound 0.316 µM): 97.5% | viability, T/C (second compound 0.00316 µM, first compound 1 µM): 104% | viability, T/C (second compound 0.00316 µM, first compound 3.16 µM): 82.2% | viability, T/C (second compound 0.00316 µM, first compound 10 µM): 62.4% | viability, T/C (second compound 0.01 µM, first compound 0.0316 µM): 90.3% | viability, T/C (second compound 0.01 µM, first compound 0.1 µM): 74.3% | viability, T/C (second compound 0.01 µM, first compound 0.316 µM): 82.6% | viability, T/C (second compound 0.01 µM, first compound 1 µM): 97.5% | viability, T/C (second compound 0.01 µM, first compound 3.16 µM): 82.3% | viability, T/C (second compound 0.01 µM, first compound 10 µM): 63.4% | viability, T/C (second compound 0.0316 µM, first compound 0.0316 µM): 61.1% | viability, T/C (second compound 0.0316 µM, first compound 0.1 µM): 62.5% | viability, T/C (second compound 0.0316 µM, first compound 0.316 µM): 59% | viability, T/C (second compound 0.0316 µM, first compound 1 µM): 75.8% | viability, T/C (second compound 0.0316 µM, first compound 3.16 µM): 79.8% | viability, T/C (second compound 0.0316 µM, first compound 10 µM): 44.8% | viability, T/C (second compound 0.1 µM, first compound 0.0316 µM): 35.2% | viability, T/C (second compound 0.1 µM, first compound 0.1 µM): 39.1% | viability, T/C (second compound 0.1 µM, first compound 0.316 µM): 44.9% | viability, T/C (second compound 0.1 µM, first compound 1 µM): 41.9% | viability, T/C (second compound 0.1 µM, first compound 3.16 µM): 42.5% | viability, T/C (second compound 0.1 µM, first compound 10 µM): 27.9% | viability, T/C (second compound 0.316 µM, first compound 0.0316 µM): 20.5% | viability, T/C (second compound 0.316 µM, first compound 0.1 µM): 23.9% | viability, T/C (second compound 0.316 µM, first compound 0.316 µM): 21.2% | viability, T/C (second compound 0.316 µM, first compound 1 µM): 26.2% | viability, T/C (second compound 0.316 µM, first compound 3.16 µM): 48.8% | viability, T/C (second compound 0.316 µM, first compound 10 µM): 19.3% | viability, T/C (second compound 1 µM, first compound 0.0316 µM): 16.9% | viability, T/C (second compound 1 µM, first compound 0.1 µM): 11.8% | viability, T/C (second compound 1 µM, first compound 0.316 µM): 16.3% | viability, T/C (second compound 1 µM, first compound 1 µM): 19.5% | viability, T/C (second compound 1 µM, first compound 3.16 µM): 17.2% | viability, T/C (second compound 1 µM, first compound 10 µM): 12.3%

CC(C)n1nc(-c2ccc3oc(N)nc3c2)c2c(N)ncnc21
viability, T/C (compound 0.000316 µM): 95.2% [middle of 4 runs] | viability, T/C (compound 0.001 µM): 90.4% [middle of 4 runs] | viability, T/C (compound 0.00316 µM): 87.5% [middle of 4 runs] | viability, T/C (compound 0.01 µM): 73% [middle of 4 runs] | viability, T/C (compound 0.0316 µM): 47.2% [middle of 4 runs] | viability, T/C (compound 0.1 µM): 20.2% [middle of 4 runs] | IC50 (curve of compound): 27.6 nM [middle of 4 runs]
